Read-outs that look alike come from different tables or passages of the source.
Key:
Conditions in all cases: for inhibition at 100 µM: 10^-4 M
[1] = biological target: T1, human A3 receptors (Homo sapiens, UniProt P0DMS8); test: radioligand binding, displacement of specific [125I]AB-MECA binding at human A3 receptors expressed in HEK-293 cells
T1 construct: expressed in transfected cells; host or cells: HEK-293 cells (membranes)
T1 sequence (P0DMS8 1-318): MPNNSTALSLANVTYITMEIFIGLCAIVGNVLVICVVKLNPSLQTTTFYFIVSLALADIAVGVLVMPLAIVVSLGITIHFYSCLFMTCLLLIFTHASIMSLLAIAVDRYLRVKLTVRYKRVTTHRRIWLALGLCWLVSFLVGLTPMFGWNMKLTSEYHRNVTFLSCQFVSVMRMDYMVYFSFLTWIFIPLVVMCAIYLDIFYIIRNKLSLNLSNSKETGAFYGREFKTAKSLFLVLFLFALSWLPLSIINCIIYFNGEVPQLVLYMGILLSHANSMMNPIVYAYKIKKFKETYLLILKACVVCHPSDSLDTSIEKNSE
Procedure: A3 receptors expressed in HEK293 cells, in membranes, expressed as
binding displaced at 100 μM.

[2] = biological target: T2, A1 receptors (Rattus norvegicus, UniProt P25099); test: biochemical; type: binding
T2 sequence (P25099 1-326): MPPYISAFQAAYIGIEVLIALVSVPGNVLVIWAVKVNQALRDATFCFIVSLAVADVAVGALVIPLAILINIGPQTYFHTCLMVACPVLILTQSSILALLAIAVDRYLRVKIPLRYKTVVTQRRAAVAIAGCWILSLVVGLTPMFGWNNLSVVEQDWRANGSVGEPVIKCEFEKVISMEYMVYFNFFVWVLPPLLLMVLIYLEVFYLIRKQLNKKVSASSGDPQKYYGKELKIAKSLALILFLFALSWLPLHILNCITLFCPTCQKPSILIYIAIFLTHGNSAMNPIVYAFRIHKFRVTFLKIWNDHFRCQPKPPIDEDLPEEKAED
Procedure: ^a Displacement of specific [^3 H] PIA binding in rat brain
percentage of specific binding displaced at 100 μM.

[3] = biological target: T3, A2a receptors (Rattus norvegicus, UniProt P30543); test: radioligand binding, displacement of specific [3H]CGS 21680 binding in rat striatal membranes
T3 construct: Displacement of specific [^3 H]; from tissue; host or cells: rat striatal membranes
Procedure: ^b Displacement of specific [^3 H]
or as a percentage of specific binding displaced at 100 μM.

[4] = Table 15, [125I]AB-MECA, HEK membranes, read-out: Ki hA3
[5] = Table 9, [3H]PIA, rat brain membranes, read-out: Ki rA1
[6] = Table 9, [3H]CGS 21680, rat striatal membranes, read-out: Ki rA2A
[7] = Table 9, [125I]AB-MECA, HEK membranes, read-out: Ki hA3
[8] = Table 12, read-out: % inhibition rA2A
[9] = Table 12, [125I]AB-MECA, HEK membranes, read-out: Ki hA3
[10] = Table 4, read-out: displacement of specific binding rA2a
[11] = Table 3, [3H]PIA, rat brain membranes, read-out: Ki rA1
[12] = Table 3, [125I]AB-MECA, HEK-293 membranes, read-out: Ki hA3
[13] = Table 3, read-out: displacement of specific binding rA2a
[14] = Table 6, [125I]AB-MECA, HEK-293 membranes, read-out: K2 (hA3)
[15] = Table 7, read-out: % of specific binding displaced hA3
[16] = Table 7, [3H]CGS 21680, rat striatal membranes, read-out: Ki (rA2A)
[17] = Table 11, [125I]AB-MECA, HEK membranes, read-out: Ki hA3
[18] = Table 16, [125I]AB-MECA, HEK membranes, read-out: Ki hA3

T3 sequence (P30543 whole entry): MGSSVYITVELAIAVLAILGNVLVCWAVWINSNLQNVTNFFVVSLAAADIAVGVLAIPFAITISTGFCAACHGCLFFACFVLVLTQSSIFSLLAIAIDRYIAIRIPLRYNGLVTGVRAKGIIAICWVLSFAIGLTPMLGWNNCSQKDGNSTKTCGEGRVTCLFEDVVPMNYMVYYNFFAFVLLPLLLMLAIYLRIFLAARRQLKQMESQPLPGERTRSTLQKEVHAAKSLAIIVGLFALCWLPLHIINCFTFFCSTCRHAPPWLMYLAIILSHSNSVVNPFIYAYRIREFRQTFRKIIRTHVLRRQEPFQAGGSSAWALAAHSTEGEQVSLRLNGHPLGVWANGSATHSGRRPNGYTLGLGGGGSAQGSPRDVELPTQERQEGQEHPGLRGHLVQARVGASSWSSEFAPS

9-Chloro-2-(2-furyl)-5-(4'-iodobenzoyl)amino[1,2,4]triazolo [1,5-c]quinazoline [Compound 152]
Ki [1, 4]: 0.0238 ± 0.0052 µM

CCOC(=O)C1=C(C)NC(C)=C(C(=O)OC)C1c1ccc2c(c1)OCO2 (racemic) [Compound 73, 3-methyl-5-ethyl-2,6-dimethyl-4-[3,4-(methylenedioxy)phenyl]-1,4(R,S)-dihydropyridine-3,5-dicarboxylate]
Ki [2, 5]: 3.66 µM | Ki [3, 6]: 5.27 µM | Ki [1, 7]: 4.58 µM

CCOC(=O)C1=C(C)NC(c2ccccc2)=C(C(=O)O)C1C#Cc1ccccc1 (racemic) [Compound 131, 3-Ethoxycarbonyl-2-methyl-4-phenylethynyl-6-phenyl-1,4(±)-dihydropyridine-5-carboxylic acid]
inhibition at 100 µM [3, 8]: 16 ± 6% | inhibition at 10 µM ([1]; Table 12, 10^-5 M, read-out: displacement of specific binding hA3): < 10%

CCOCN1C(C)=C(C(=O)OCC)C(C#Cc2ccccc2)C(C(=O)O)=C1c1ccccc1 (racemic) [Compound 139, 1-Ethoxymethyl-3-ethoxycarbonyl-2-methyl-4-phenylethynyl-6-phenyl-1,4-(±)-dihydropyridine-5-carboxylic acid]
inhibition at 100 µM [3, 8]: 36 ± 7% | rA1/hA3 [1]: > 1 | Ki [1, 9]: > 100 µM

O=C1c2ccccc2O[C@H](c2ccccc2O)[C@H]1O (relative stereo) [Compound 14, reference compound]
inhibition at 100 µM [3, 10]: < 10% | inhibition at 100 µM ([1]; Table 4, read-out: % of specific binding displaced hA3): 27 ± 3% | rA1/hA3 ([1]; Table 4, ratio of Ki): < 1

COc1ccc2c(c1)C(=O)[C@H](O)[C@@H](C#Cc1ccccc1)O2 (relative stereo) [Compound 16]
Ki ([2]; Table 4, [3H]PIA, rat brain membranes, read-out: Ki rA1): 50.3 ± 17 µM | inhibition at 100 µM [3, 10]: < 10% | rA1/hA3 [1]: 6.2 | Ki ([1]; Table 4, [125I]AB-MECA, HEK-293 membranes, read-out: Ki hA3): 8.17 µM

CCOC(=O)c1c(C)nc(-c2ccccc2)c(C(=O)OCc2ccccc2)c1C#Cc1ccccc1 [B]
Ki ([2]; Table 11, [3H]PIA, rat brain membranes, read-out: Ki rA1): 7.01 ± 1.98 µM | inhibition at 100 µM ([3]; Table 11, read-out: % inhibition rA2A): 43 ± 2% | rA1/hA3 [1]: 2.6

CCCOc1cc(OCCC)c2c(=O)c(OCCC)c(-c3ccccc3)oc2c1 [Compound 4, 3,5,7-Tripropyloxyflavone]
Ki [2, 11]: 1.1 ± 0.2 µM | Ki [1, 12]: 0.317 µM

CCOc1ccc(-c2oc3cc(OCC)cc(O)c3c(=O)c2OCC)c(OCC)c1 [Compound 7, 2',4',3,7-Tetraethoxy-5-hydroxymorin]
inhibition at 100 µM ([2]; Table 3, read-out: displacement of specific binding rA1): < 10% | inhibition at 100 µM [3, 13]: < 10% | Ki [1, 12]: 4.83 ± 1.4 µM | rA1/hA3 ([1]; Table 3, ratio of Ki): > 40

CCOc1ccc(-c2oc3cc(OCC)cc(OCC)c3c(=O)c2OCC)c(OCC)c1 [Compound 8, 2',3,4',5,7-Pentaethoxyflavone]
Ki ([3]; Table 3, [3H]CGS 21680, rat striatal membranes, read-out: Ki rA2a): 26.8 µM | Ki [1, 12]: 7.27 ± 1.88 µM

COc1cc(OC)c(-c2oc3ccccc3c(=O)c2O)c(OC)c1 [Compound 9, reference compound]
Ki [2, 11]: 7.32 ± 1.36 µM | inhibition at 100 µM [3, 13]: < 10% | Ki [1, 12]: 50.1 ± 7.8 µM | rA1/hA3 ([1]; Table 3, ratio of Ki): 0.15

CCCOc1c2ccoc2cc2oc(/C=C/c3ccccc3)cc(=O)c12 [Compound 21, 4-propyloxy-7-trans-styryl-visnagin]
Ki ([1]; Table 5, [125I]AB-MECA, HEK-293 membranes, read-out: Ki hA3): 3.95 µM

O=c1cc(-c2ccccc2)oc2cccc(O)c12 [Compound 25, reference compound]
Ki ([3]; Table 6, [3H]CGS 21680, rat striatal membranes, read-out: K2 (rA2a)): 6.2 ± 1.24 µM | inhibition at 100 µM ([1]; Table 6, read-out: % inhibition hA3): 47 ± 12%

COc1ccc(-c2cc(=O)c3c(OC)c(OC)c(OC)cc3o2)cc1 [Compound 31, reference compound]
Ki ([2]; brain membranes, read-out: K2 (rA1)): 1.29 ± 0.08 µM | Ki [1, 14]: 4.48 ± 0.14 µM

COc1ccc(-c2oc3cc(OC)cc(OC)c3c(=O)c2OC)cc1 [Compound 35, 3,4',5,7-tetramethoxyflavone]
Ki ([2]; Table 6, [3H]PIA, rat brain membranes, read-out: K2 (rA1)): 1.07 µM | Ki [1, 14]: 3.37 ± 1.83 µM

COc1cc(O)c2c(=O)c(O)c(-c3ccc(O)c(O)c3)oc2c1 [Compound 36, rhamnetin, reference compound]
Ki [1, 14]: 1.38 ± 0.18 µM

COc1cc(OC)c2c(=O)c(OC)c(-c3cc(OC)c(OC)c(OC)c3)oc2c1 [Compound 39, hexamethylmyricetin]
inhibition at 1 µM ([2]; Table 6, 10^-6 M, read-out: displacement of specific binding rA1): < 10% | Ki [1, 14]: 16.2 ± 2.2 µM

O=c1c(-c2ccc(O)cc2)coc2cc(O)cc(O)c12 [Compound 40, genistein, reference compound]
inhibition at 100 µM [1, 15]: 20 ± 2%

COc1cc(O)c2c(c1)O[C@H](c1ccc(O)cc1)CC2=O [Compound 42, sakuranetin, reference compound]
Ki ([1]; Table 7, [125I]AB-MECA, HEK-293 membranes, read-out: Ki (hA3)): 3.4 ± 0.18 µM

COc1cc2c3c(oc(=O)c2cc1OC)CCCC3=O [Compound 45]
Ki [3, 16]: 29.9 ± 10.1 µM | inhibition at 100 µM ([1]; Table 7, read-out: displacement of specific binding hA3): < 10%

O=C1c2ccccc2-c2cc3c(cc21)OCO3 [Compound 49, 2,3-methylenedioxy-fluorene-9-one]
Ki [3, 16]: 84 ± 6.9 µM | inhibition at 100 µM [1, 15]: 52 ± 6%

COCCOC(=O)C1=C(C)NC(C)=C(C(=O)OC(C)C)C1c1cccc([N+](=O)[O-])c1 (centres unmarked) [Compound 64, reference compound]
Ki [2, 5]: 20.1 µM | greater affinity to A1 than A2a adenosine receptors ([2]; selectivity in words): greater affinity to A1 adenosine receptors than A2a receptors | Ki [1, 7]: 8.47 µM | greater affinity for A3 than A1 or A2a adenosine receptors ([1]; selectivity in words): greater affinity for A3 adenosine receptors than A1 or A2a adenosine receptors

COC(=O)C1=C(C)NC(C)=C(C(=O)OCCCN2CCC(c3ccccc3)(c3ccccc3)CC2)C1c1cccc([N+](=O)[O-])c1 (centres unmarked) [Compound 65, reference compound]
greater affinity to A1 than A2a adenosine receptors [2]: greater affinity to A1 adenosine receptors than A2a receptors | greater affinity for A3 than A1 or A2a adenosine receptors [1]: greater affinity for A3 adenosine receptors than A1 or A2a adenosine receptors

CCOC(=O)C1=C(C)NC(c2ccccc2)=C(C(=O)OCC)C1/C=C/c1ccccc1 (centres unmarked) [Compound 79]
Ki [3, 6]: 4.77 ± 0.29 µM | greater affinity for A3 than A1 or A2a adenosine receptors ([1]; selectivity in words): greater affinity for A3 adenosine receptors than A1 or A2a adenosine receptors

COc1ccc(-c2ccncc2)cc1 [Compound 83]
Ki ([3]; Table 10, [3H]CGS 21680, rat striatal membranes, read-out: Ki rA2a): 71 ± 29 µM | inhibition at 100 µM ([1]; Table 10, read-out: displacement of specific binding hA3): < 10%

CCOC(=O)C1=C(C)NC(c2ccccc2)=C(C(=O)OCc2ccccc2)C1C#Cc1ccc([N+](=O)[O-])cc1 (centres unmarked) [Compound 102]
Ki [1, 17]: < 0.1 µM

CCOC(=O)C1=C(C)NC(c2ccccc2)=C(C(=O)OCc2ccccc2)C1C#Cc1ccc(N)cc1 (centres unmarked) [Compound 103]
Ki [1, 17]: < 0.1 µM

CCOC(=O)C1=C(C)NC(c2ccccc2)=C(C(=O)OCc2ccccc2)C1C#Cc1ccc(N)c(I)c1 (centres unmarked) [Compound 104]
Ki [1, 17]: < 0.1 µM

CCOC(=O)C1=C(C)NC(c2ccccc2)=C(C(=O)OCc2ccc(C(=O)NCCN)cc2)C1C#Cc1ccccc1 (centres unmarked) [Compound 123]
Ki [1, 9]: 0.01 µM

Nc1nc2ccc(Cl)cc2c2nc(-c3ccco3)nn12 [Compound 144, reference compound]
Ki ([1]; read-out: Ki hA3): 0.0138 ± 0.0024 µM

Nc1nc2ccc(Cl)cc2c2nc(-c3ccc(Br)o3)nn12 [Compound 157]
Ki [1, 4]: 0.054 ± 0.0131 µM

O=C(CCc1ccccc1)Nc1nc2ccc(Cl)cc2c2nc(-c3ccco3)nn12 [Compound 160]
Ki ([3]; read-out: Ki rA2A): 0.0283 ± 0.0103 µM | Ki [1, 18]: 0.0297 ± 0.0077 µM

O=C(Cc1ccc([N+](=O)[O-])cc1)Nc1nc2ccc(Cl)cc2c2nc(-c3ccco3)nn12 [Compound 162]
Ki ([2]; Table 16, [3H]R-PIA, rat brain membranes, read-out: Ki rA1): 0.028 µM | Ki [1, 18]: 0.0087 ± 0.00097 µM

Nc1ccc(CC(=O)Nc2nc3ccc(Cl)cc3c3nc(-c4ccco4)nn23)cc1 [Compound 163]
Ki [1, 18]: 0.004 µM

Nc1ccc(CC(=O)Nc2nc3ccc(Cl)cc3c3nc(-c4ccco4)nn23)cc1I [Compound 164]
Ki [1, 18]: 0.001 µM

CCOC(=O)C1=C(c2ccccc2)NC(C)=C(C(=O)OCC2COC(C)(C)O2)C1C#Cc1ccccc1 (centres unmarked) [Compound 209a]
inhibition at 100 µM ([2]; Table 14, read-out: % inhibition rA1): 32 ± 4% | inhibition at 100 µM ([3]; Table 14, read-out: displacement of specific binding rA2A): < 10%
